# Experiments:
# Format in all cases: cell-based, human
# TAS2R16 = assay: Proton secretion assay in TAS2R16 knock-down vs mock-transfected HGT-1 cells; conditions: TAS2R16kd vs mock-transfected HGT-1 cells, VAPFPEVF 17.5 µM, YFYPEL 0.03 µM, YQEPVLGPVRGPFPIIV 0.4 µM, 10 min, mean ± SEM; for decrease of the peptide-induced increase in proton secretion activity in TAS2R16kd cells: 72 h after 10 nM siRNA; for change of peptide-induced proton secretion, TAS2R16kd (Figure 5B–D): negative = reduction
# Description: The measurement of proton secretion from HGT-1 cells represents a well-established model for the identification of bitter compounds. By affecting extraoral bitter taste receptors with bitter compounds, a modulatory effect on proton secretion can be measured. For this purpose, cells were washed with KRHB and incubated with 3 μM of the intracellular pH indicator 1,5 carboxy-seminaphto-rhodafluor acetoxymethyl ester (SNARF-1-AM) under standard conditions. After 30 min, the cells were washed again with KRHB and then incubated with casein (0.01–10 μM equimolar related to the relevant forms αS1- and β-casein), hydrolysate (0.01–10 μM), or the peptides (0.01–200 μM). […] All substances were dissolved and diluted in KRHB. 1 mM histamine was used as a positive control. Measurements were performed using FlexStation 3 (Molecular Devices, USA). The excitation wavelength was 488 nm, and the emission wavelengths were 580 and 640 nm. For calibration (pH range 7.0–8.0), the intracellular and extracellular pH was adjusted with 2 μM nigericin in potassium buffer (20 mM NaCl, 110 mM KCl, 1 mM CaCl2, 1 mM MgSO4, 18 mM D-glucose, and 20 mM HEPES). The intracellular proton index (IPX) was calculated as the log2 value of the 580/640 ratio and compared with cells without treatment. Negative values represent increased secretion of protons and therefore stimulation of mechanisms regulating gastric acid secretion in HGT-1 cells. In contrast, positive values represent an inhibition of secretion compared to the untreated control.
# Expression of TAS2R16 and TAS2R38 was reduced by treatment of HGT-1 cells with siRNA. 100,000 cells per well were seeded 1 day before the experiment into a 24-well plate. All reagents and siRNA were purchased from Thermo Fisher Scientific, USA (cytotoxicity was excluded by MTT). Transfection was performed with Lipofectamine RNAiMAX in Opti-Medium according to the manufacturer’s protocol. 1–50 nM of different siRNA sequences (HSS121396 and HSS181763 for TAS2R16 and HSS108754 and HSS108756 for TAS2R38) and three different incubation times (24, 48, and 72 h) were tested. Mock control experiments were performed analogously with 1 or 10 nM Stealth RNAi siRNA negative control. To verify the functionality of the transfection process, verified 10 nM siRNA targeting MAPK1 (VHS40312) was used (positive control). The transfection rate was checked by qPCR as described in section 2.11. For the proton secretion assays, 20,000 cells per well were seeded 1 day before transfection into a black 96-well plate. After 72 h of transfection, proton secretion activities of TAS2R16 knock-down or TAS2R38 knock-down HGT-1 were compared with the mock transfected cells by means of ΔIPX.
# TAS2R5 = assay: RT-qPCR gene expression of TAS2R5 in HGT-1 cells; conditions: VAPFPEVF 17.5 µM, YFYPEL 0.03 µM, YQEPVLGPVRGPFPIIV 0.4 µM, normalized to PPIA and GAPDH and untreated cells, mean, n = 3–5
# Description: (§1) For mRNA expression analysis, 800,000 cells were seeded in a T25 cell culture flask (25 cm^2) 1 day before the experiment. After incubation with 17.5 μM […], 0.03 μM YFYPEL, or 0.4 μM […] for 15, 30, 60, and 120 min, RNA was isolated using the peqGOLD RNA Kit (VWR Peqlab, USA) following the manufacturer’s protocol. Determination of RNA concentration (A260/A280 between 2.03 and 2.09) was performed on a NanoDrop One^c (Thermo Fisher Scientific Inc., USA). RNA integrity number (RIN 9.9–10.0, version 2.6, assay class Eukaryote Total RNA Nano) was analyzed using a 2100 Bioanalyzer (Agilent Technologies, USA). Removal of gDNA and synthesis of cDNA were performed using the iScript gDNA Clear cDNA Synthesis Kit (BioRad, Feldkirchen, Germany) following the manufacturer’s protocol. Real-time-qPCR (RT-qPCR) was performed with 50 ng cDNA amplified with SsoAdvanced Universal SYBR Green Supermix (Bio-Rad Laboratories, Inc., USA). The sequences of the forward and reverse primers of the 25 TAS2Rs were taken from Liszt et al.([13]) (Supporting Information Table-SI 3). Verified primers for the TAS1Rs (TAS1R1: qHsaCID0013443; TAS1R2: qHsaCID0016106; TAS1R3: qHsaCED0002321) and for MAPK1 (qHsaCEP0050000) were obtained from Bio-Rad Laboratories. PPIA[37] and GAPDH[38] were used as reference genes. The effects of the peptides on gene expression were analyzed in comparison to untreated control cells.
# TAS2R42 = assay: RT-qPCR gene expression of TAS2R42 in HGT-1 cells; conditions: VAPFPEVF 17.5 µM, YFYPEL 0.03 µM, YQEPVLGPVRGPFPIIV 0.4 µM, normalized to PPIA and GAPDH and untreated cells, mean, n = 3–5
# Description: as §1
# TAS2R50 = assay: RT-qPCR gene expression of TAS2R50 in HGT-1 cells; conditions: VAPFPEVF 17.5 µM, YFYPEL 0.03 µM, YQEPVLGPVRGPFPIIV 0.4 µM, normalized to PPIA and GAPDH and untreated cells, mean, n = 3–5
# Description: as §1
Substance,decrease of the peptide-induced increase in proton secretion activity in TAS2R16kd cells (TAS2R16) [%],"change of peptide-induced proton secretion, TAS2R16kd (Figure 5B–D) (TAS2R16) [%]",change in gene expression of TAS2R5 (TAS2R5; incubation 15 min) [fold change],change in gene expression of TAS2R5 (TAS2R5; incubation 30 min) [fold change],change in gene expression of TAS2R5 (TAS2R5; incubation 60 min) [fold change],change in gene expression of TAS2R5 (TAS2R5; incubation 120 min) [fold change],change in gene expression of TAS2R42 (TAS2R42; incubation 15 min) [fold change],change in gene expression of TAS2R42 (TAS2R42; incubation 30 min) [fold change],change in gene expression of TAS2R42 (TAS2R42; incubation 60 min) [fold change],change in gene expression of TAS2R42 (TAS2R42; incubation 120 min) [fold change],change in gene expression of TAS2R50 (TAS2R50; incubation 15 min) [fold change],change in gene expression of TAS2R50 (TAS2R50; incubation 30 min) [fold change],change in gene expression of TAS2R50 (TAS2R50; incubation 60 min) [fold change],change in gene expression of TAS2R50 (TAS2R50; incubation 120 min) [fold change]
YFYPEL [bitter casein peptide αS1-CN144–149],86.3 ± 9.9,-86.3 ±9.9,1.34,1.03,0.90,1.02,1.17,0.55,0.69,0.93,1.50,0.70,0.92,0.91
YQEPVLGPVRGPFPIIV [bitter casein peptide βA1/A2-CN193–209],76.6 ± 9.9,-76.6 ±9.9,1.25,1.45,1.39,1.22,0.62,1.38,1.18,0.94,0.67,1.66,1.21,1.07
VAPFPEVF [bitter casein peptide αS1-CN25–32],77.4 ± 10.1,-77.4 ±10.1,0.91,1.05,0.93,1.23,0.52,0.88,0.71,1.20,0.56,1.39,0.83,1.56

# — PMC9501810, “Bitter Peptides YFYPEL, [sequence], and [sequence], Released during Gastric Digestion of Casein, Stimulate Mechanisms of Gastric Acid Secretion via Bitter Taste Receptors TAS2R16 and TAS2R38” (Journal of Agricultural and Food Chemistry, 2022)
